For this assay, the system named is P1534 leukemia ip, CD2F1 mice, survival T/C. Briefly: NCI In Vivo Anticancer Drug Screen. Data for tumor model P1534 Leukemia (intraperitoneal) in CD2F1 (CDF1) mice. Conditions: endpoint: mean survival time, higher = longer survival. The protocol:
The antitumor activity of compounds was measured in mice bearing transplantable tumors. Survival or tumor size were measured and the results are expressed as the measurement made in the treated group (T) divided by the measurement made in the vehicle treated control group (C). The tumor model used in this assay is P1534 Leukemia (intraperitoneal) in CD2F1 (CDF1) mice

The mark [1] stands for this setting: dose: 25.0 mg/kg/injection, schedule: Q01DX010 (ip), vehicle: saline.
Where [2] appears, read: dose: 50.0 mg/kg/injection, schedule: Q01DX010 (ip), vehicle: saline.
[3] abbreviates: dose: 100.0 mg/kg/injection, schedule: Q01DX010 (ip), vehicle: saline.
Setting [4] is: dose: 200.0 mg/kg/injection, schedule: Q01DX010 (ip), vehicle: saline.
Setting [5] is: dose: 400.0 mg/kg/injection, schedule: Q01DX010 (ip), vehicle: saline.
The mark [6] stands for this setting: dose: 300.0 mg/kg/injection, schedule: Q01DX010 (ip), vehicle: water.
Setting [7] is: dose: 8.0 mg/kg/injection, schedule: Q01DX010 (ip), vehicle: saline.
The mark [8] stands for this setting: dose: 62.5 mg/kg/injection, schedule: Q01DX010 (ip), vehicle: saline.
The mark [9] stands for this setting: dose: 125.0 mg/kg/injection, schedule: Q01DX010 (ip), vehicle: saline.
Setting [10] is: dose: 250.0 mg/kg/injection, schedule: Q01DX010 (ip), vehicle: saline.
Setting [11] is: dose: 20.0 mg/kg/injection, schedule: Q01DX010 (ip), vehicle: saline.
Setting [12] is: dose: 2.5 mg/kg/injection, schedule: Q01DX010 (ip), vehicle: saline.
Setting [13] is: dose: 10.0 mg/kg/injection, schedule: Q01DX010 (ip), vehicle: saline.
Where [14] appears, read: dose: 12.5 mg/kg/injection, schedule: Q01DX010 (ip), vehicle: saline.

“And” between values parts separate entries of the source, which are not always exact repeats. Identical values can stand only once. Toxic doses and inconclusive results are not listed.

Consider `SCc1ccccn1`, for which the T/C runs as follows: under setting [1], 107 % of control; under setting [2], 100 % of control; under setting [3], 115 % of control; under setting [4], 115 % of control.

In the case of `CC(=O)NCCCCCCCCCCNC(C)=O`, the T/C was 100 % of control under setting [2], 100 % of control under setting [3], 92 % of control under setting [4] and 96 % of control under setting [5].

As to `NC(=O)c1ccc(N)nc1`, the T/C is, setting by setting: (dose: 0.25 mg/kg/injection, schedule: Q#A X020 (ip), vehicle: saline) 119 % of control; (dose: 0.38 mg/kg/injection, schedule: Q01DX010 (ip), vehicle: saline) 120 % of control and 94 % of control; (dose: 0.75 mg/kg/injection, schedule: Q01DX010 (ip), vehicle: saline) 153 % of control; (dose: 1.5 mg/kg/injection, schedule: Q01DX006 (iv), vehicle: saline) 114 % of control; (dose: 1.5 mg/kg/injection, schedule: Q01DX010 (im), vehicle: saline) 121 % of control; (dose: 1.5 mg/kg/injection, schedule: Q01DX010 (oral), vehicle: saline) 100 % of control. Moreover, the T/C was 121 % of control (dose: 1.5 mg/kg/injection, schedule: Q01DX010 (sc), vehicle: saline); 119 % of control (dose: 1.5 mg/kg/injection, schedule: Q03DX Z (ip), vehicle: saline); 100 % of control (dose: 2.0 mg/kg/injection, schedule: Q#A X020 (ip), vehicle: saline); 114 % of control (dose: 3.0 mg/kg/injection, schedule: Q01DX006 (iv), vehicle: saline); 121 % of control (dose: 3.0 mg/kg/injection, schedule: Q01DX010 (im), vehicle: saline); 158 % of control (dose: 3.0 mg/kg/injection, schedule: Q01DX010 (ip), vehicle: saline). Also, the T/C is 123 % of control (dose: 3.0 mg/kg/injection, schedule: Q01DX010 (oral), vehicle: saline); 115 % of control (dose: 3.5 mg/kg/injection, schedule: Q01DX001 (ip), vehicle: saline); 115 % of control (dose: 3.5 mg/kg/injection, schedule: Q07DX Z (ip), vehicle: saline); 121 % of control (dose: 6.0 mg/kg/injection, schedule: Q01DX010 (im), vehicle: saline); 88 % of control (dose: 6.0 mg/kg/injection, schedule: Q01DX010 (ip), vehicle: saline); 115 % of control (dose: 7.0 mg/kg/injection, schedule: Q01DX001 (ip), vehicle: saline). For the same compound, the T/C by setting is: (dose: 12.0 mg/kg/injection, schedule: Q03DX Z (ip), vehicle: saline) 119 % of control; (dose: 14.0 mg/kg/injection, schedule: Q01DX001 (ip), vehicle: saline) 117 % of control and 119 % of control; (dose: 14.0 mg/kg/injection, schedule: Q07DX Z (ip), vehicle: saline) 117 % of control and 119 % of control; (dose: 28.0 mg/kg/injection, schedule: Q01DX001 (ip), vehicle: saline) 88 % of control; (dose: 112.0 mg/kg/injection, schedule: Q01DX001 (ip), vehicle: saline) 121 % of control.

Regarding `CC1=NN(c2ccccc2)C(=O)C1`, the T/C is 94 % of control (dose: 150.0 mg/kg/injection, schedule: Q01DX010 (ip), vehicle: water) and 91 % of control under setting [6].

Consider `CCCCOP(=S)(N1CC1)N1CC1`, for which the T/C reads like this: (dose: 4.0 mg/kg/injection, schedule: Q01DX010 (ip), vehicle: saline) 115 % of control; under setting [7], 123 % of control.

Turning to `Cc1ccccn1`, the T/C by setting is: under setting [8], 96 % of control; under setting [9], 100 % of control; under setting [10], 96 % of control.

For the compound `CC(=O)Nc1ccc(/C=N/Nc2ccc([N+](=O)[O-])cn2)cc1`, the T/C was 100 % of control under setting [8], 100 % of control under setting [9] and 96 % of control under setting [10].

Regarding `CCN(CC)CCNc1ccc(C)c2sc3ccccc3c(=O)c12`, the T/C was 103 % of control under setting [11]; 103 % of control (dose: 40.0 mg/kg/injection, schedule: Q01DX010 (ip), vehicle: saline); 107 % of control (dose: 80.0 mg/kg/injection, schedule: Q01DX010 (ip), vehicle: saline).

Consider `COC(=O)C1C(O)CCC2CN3CCc4c([nH]c5ccccc45)C3CC21` (centres undefined), for which the T/C under setting [12] was 100 % of control; the T/C (dose: 5.0 mg/kg/injection, schedule: Q01DX010 (ip), vehicle: saline) was 100 % of control; the T/C under setting [13] was 100 % of control; the T/C under setting [11] is 96 % of control.

Regarding `CC[n+]1c(-c2ccccc2)c2cc(N)ccc2c2ccc(N)cc21`, the T/C is, setting by setting: (dose: 1.25 mg/kg/injection, schedule: Q01DX010 (ip), vehicle: saline) 117 % of control; under setting [12], 117 % of control; under setting [13], 150 % of control.

Regarding `OC(CBr)C(O)C(O)C(O)CBr` (centres undefined), the T/C runs as follows: under setting [14], 103 % of control; under setting [1], 103 % of control; under setting [2], 103 % of control; under setting [3], 103 % of control.

On to `O=C1C(=O)N(CN2CCCCC2)c2ccccc21`, for which the T/C is 100 % of control under setting [2], 100 % of control under setting [3], 96 % of control under setting [4] and 100 % of control under setting [5].

On to `c1ccc(CNc2ncnc3[nH]ncc23)cc1`, for which the T/C reads like this: under setting [7], 100 % of control; (dose: 16.0 mg/kg/injection, schedule: Q01DX010 (ip), vehicle: saline) 110 % of control; (dose: 32.0 mg/kg/injection, schedule: Q01DX010 (ip), vehicle: saline) 120 % of control and 90 % of control; (dose: 64.0 mg/kg/injection, schedule: Q01DX010 (ip), vehicle: saline) 105 % of control and 110 % of control.

With `[N-]=[N+]=CC(=O)NCC(=O)NN`, the T/C (dose: 100.0 mg/kg/injection, schedule: Q01DX010 (ip), vehicle: water) was 103 % of control; the T/C (dose: 200.0 mg/kg/injection, schedule: Q01DX010 (ip), vehicle: water) was 120 % of control; the T/C under setting [6] is 123 % of control.

Consider `CC(O)CCc1ccc(O)cc1` (centres undefined), for which the T/C is, setting by setting: (dose: 18.8 mg/kg/injection, schedule: Q01DX010 (ip), vehicle: saline) 100 % of control; (dose: 37.5 mg/kg/injection, schedule: Q01DX010 (ip), vehicle: saline) 92 % of control; (dose: 75.0 mg/kg/injection, schedule: Q01DX010 (ip), vehicle: saline) 92 % of control; (dose: 150.0 mg/kg/injection, schedule: Q01DX010 (ip), vehicle: saline) 100 % of control.

`COc1ccc2c(c1OC)C(=O)O[C@@H]2[C@H]1c2c(cc3c(c2OC)OCO3)CCN1C`: the T/C was 103 % of control (dose: 31.3 mg/kg/injection, schedule: Q01DX010 (ip), vehicle: saline); 92 % of control and 100 % of control under setting [8]; 100 % of control under setting [9]; 100 % of control under setting [10].

Take `CN(C)/N=N/c1nc[nH]c1C(N)=O`: the T/C was 100 % of control (dose: 6.25 mg/kg/injection, schedule: Q01DX010 (ip), vehicle: saline); 107 % of control under setting [14]; 103 % of control under setting [1]; 107 % of control under setting [2].

As for `CCCCCCCCCCCCNCCCCCCCCCCCC`, the T/C is 106 % of control (dose: 5.0 mg/kg/injection, schedule: Q01DX010 (ip), vehicle: other) and 98 % of control (dose: 10.0 mg/kg/injection, schedule: Q01DX010 (ip), vehicle: other).

On to `CC(=O)[C@@]1(O)CC[C@H]2[C@@H]3C[C@H](C)C4=CC(=O)C=C[C@]4(C)[C@@]3(F)[C@@H](O)C[C@@]21C`, for which the T/C (dose: 12.5 mg/kg/injection, schedule: Q01DX010 (sc), vehicle: steriod suspending solution) was 107 % of control; the T/C (dose: 25.0 mg/kg/injection, schedule: Q01DX010 (sc), vehicle: steriod suspending solution) is 107 % of control; the T/C (dose: 50.0 mg/kg/injection, schedule: Q01DX010 (sc), vehicle: steriod suspending solution) is 107 % of control; the T/C (dose: 100.0 mg/kg/injection, schedule: Q01DX010 (sc), vehicle: steriod suspending solution) is 100 % of control.

The values are drawn from PubChem BioAssay AID316 (DTP/NCI, 2004).
